Values of other authors in patent publication US12394502B2, “Method for predicting HLA-binding peptides using protein structural features” (The General Hospital Corporation, priority 2019, dated 2025).

Assays:
[1] = test system: Stage IV Melanoma Patients; details: temozolomide combined with peptide vaccination
[2] = more than 25 clinical trials
[3] = test system: ovarian carcinoma patients
[4] = test system: advanced hormone refractory prostate cancer patients; details: personalized vaccination alone or combined with a low dose of estramustine

Cn1nnc2c(C(N)=O)ncn2c1=O [temozolomide]
toxicity [1]: low toxicity

Polyinosinic-Polycytidylic Acid-poly-L-lysine Carboxymethylcellulose [poly-ICLC]
toxicity profile [2]: relatively benign toxicity profile | generation of NY-ESO-1-specific CD4+ and CD8+ T cell and antibody responses ([3]; 1.4 mg poly-ICLC and Montanide added to OLP, compared to OLP alone or OLP and Montanide, subcutaneous): markedly enhanced | patients showing induction of CD4+ and CD8+ T cell, as well as antibody responses to the peptide ([3]; poly-ICLC in combination with NY-ESO-1 peptide vaccine (in addition to Montanide)): > 90% | safety (healthy human volunteers; human volunteer study): safe | differential expression of genes versus placebo (healthy human volunteers; one single s.c. administration, 8 subjects versus 4 placebo, whole blood): up to 212 genes

C[C@]12CC[C@@H]3c4ccc(OC(=O)N(CCCl)CCCl)cc4CC[C@H]3[C@@H]1CC[C@@H]2O [estramustine]
patients with >50% decrease in serum prostate specific antigen (PSA) [4]: 54%
